Data: patent US10463651B2, “3-(1H-pyrrolo[3,2-C]pyridin-2-YL)-1H-indazoles and therapeutic uses thereof” (Samumed, LLC, priority 2015, dated 2019)

Legend:
Assay type in all cases: cell-based
IL-6 (THP-1 cells) = experiment: IL-6 inhibition in LPS-stimulated THP-1 cells (HTRF); details: Homo sapiens; for EC50: IL6 by HTRF, THP-1 cells, 500 ng/mL LPS, 22 hours; for inhibition at 10 µM: THP-1, read-out: percent inhibition at 10 M
Protocol: THP-1 cells were cultured in basal media with 1% FBS for 24 hours before the start of the assay. […] THP-1 cells were plated at 5000 cells/well in the 384-well plates and incubated at 37° C. for 2 h. 500 ng/mL of LPS was added after 2 hours and cells were incubated for another 22 hours at 37° C. Plates were spun in a centrifuge for 1 minute at […] and a mixture of anti-IL6 XL665, and anti-IL6 Cryptate diluted in reconstitution buffer (Cisbio Inc.) was added to each well. Following incubation for 3 hrs at room temperature, Homogeneous Time-Resolved Fluorescence (HTRF) was measured using the Envision (Perkin Elmer) at 665 nm and […]. The ratio of fluorescence at 665 nm to 620 nm was used as a readout for IL6 quantification. All samples were processed in duplicate. Readings were normalized to DMSO treated cells and normalized activities were utilized for EC50 calculations using the dose-response log (inhibitor) vs. response-variable slope (four parameters) nonlinear regression feature available in GraphPad Prism 5.0 (or Dotmatics).

[1] = tested on: primary human fibroblasts derived from IPF patients (LL29 cells) treated with TGF-β1; experiment: Inhibition of the fibrotic process (αSMA staining) in TGF-β1-treated fibroblasts; details: Fibroblast, 96 h; for EC50: % αSMA-positive LL29 cells, TGF-β1 20 ng/mL, 4 days
Protocol: Representative compounds were screened using primary human fibroblasts (derived from IPF patients) treated with TGF-β1 to determine their ability to inhibit the fibrotic process.
LL29 cells are plated at 1,500 cells/well in 80 μL/well F12 medium supplemented with 1% Fetal Bovine Serum. […] Wells treated with TGF-P1 and containing DMSO were used as controls. […] Following incubation for 4 days, SYTOX green nucleic acid stain (Life Technologies [Thermo Fisher Scientific]) was added to the wells at a final concentration of 1 μM and incubated at room temperature for 30 min.

SW480 colon cancer cells = experiment: Cell viability assay (CellTiter-Blue); details: Homo sapiens; for EC50: 96 h, SW480 cell viability, four days, CellTiter-Blue
Protocol: Representative compounds were screened using the following assay procedure to assess the effect on cell viability as described below.
Approximately 2×10^3 SW480 colon cancer cells were seeded into each well and allowed to incubate in the presence or absence of compound for four days at 37° C./5% CO2. Eight replicates of DMSO-treated cells served as controls and cells treated with compound were performed in duplicate.
After incubation, 20 μL of CellTiter-Blue (Promega) was added to each well allowed to incubate for approximately 3 hours. This reagent was a buffered solution which contains resazurin, metabolically active cells were able to reduce rezarurin (blue) into resorufin (pink) which was highly fluorescent. This measured fluorescence was used as a readout for cell viability.

[2] = tested on: Wnt activity (Sp5-Luc reporter, SW480 colon carcinoma cells); experiment: Screening assay for Wnt activity (Sp5-Luc reporter gene assay in SW480 cells); details: Homo sapiens; for EC50: Sp5-Luc reporter, SW480 cells, incubated overnight; for inhibition at 10 µM: SW480, read-out: percent inhibition at 10 μM
Description: The screening assay for Wnt activity is described as follows. Reporter cell lines can be generated by stably transducing cancer cell lines (e.g., colon cancer) or primary cells (e.g., IEC-6 intestinal cells) with a lentiviral construct that includes a Wnt-responsive promoter driving expression of the firefly luciferase gene.
SW480 colon carcinoma cells were transduced with a lentiviral vector expressing luciferase with a human Sp5 promoter consisting of a sequence of eight TCF/LEF binding sites. SW480 cells stably expressing the Sp5-Luc reporter gene and a hygromycin resistance gene were selected by treatment with 150 μg/mL of hygromycin for 7 days. These stably transduced SW480 cells were expanded in cell culture and used for all further screening activities. […] For Sp5-Luc reporter gene assays, the cells were plated at 4,000 cells/well in 384-well plates with medium containing 1% fetal bovine serum and incubated overnight at 37° C. and 5% CO2. Following incubation, 20 μl of BrightGlo luminescence reagent (Promega) was added to each well of the 384-well assay plates. The plates were placed on an orbital shaker for 2 min and then luminescence was quantified using the Envision (Perkin Elmer) plate reader. Readings were normalized to DMSO only treated cells, and normalized activities were utilized for EC50 calculations using the dose-response log (inhibitor) vs. response-variable slope (four parameters) nonlinear regression feature available in GraphPad Prism 5.0 (or Dotmatics).

SMILES | EC50 (IL-6 (THP-1 cells)) [nM] | EC50 [1] [nM] | EC50 (SW480 colon cancer cells) [nM] | EC50 [2] [nM] | inhibition at 10 µM (IL-6 (THP-1 cells)) [%] | inhibition at 10 µM ([1]; read-out: percent inhibition at 10 μM) [%] | inhibition at 10 µM (SW480 colon cancer cells; SW480, 96 h, read-out: percent inhibition at 10 μM) [%] | inhibition at 10 µM [2] [%]
CC(C)CC(=O)Nc1cncc(-c2ccc3[nH]nc(-c4cc5c(-c6cc(F)cc(CNS(C)(=O)=O)c6)nccc5[nH]4)c3c2)c1 [Compound 478, N-(5-(3-(4-(3-Fluoro-5-(methylsulfonamidomethyl)phenyl)-1H-pyrrolo[3,2-c]pyridin-2-yl)-1H-indazol-5-yl)pyridin-3-yl)-3-methylbutanamide] | 115 | 2370 | 1070 | 581 |  |  |  | 
Fc1ccc(-c2nccc3[nH]c(-c4n[nH]c5ccc(C6=CCNCC6)cc45)cc23)cc1 [Compound 522, 3-(4-(4-Fluorophenyl)-1H-pyrrolo[3,2-c]pyridin-2-yl)-5-(1,2,3,6-tetrahydropyridin-4-yl)-1H-indazole] | > 10000 | 1430 | 2170 | 3780 | 4.1 |  |  | 
Fc1cccc(-c2nccc3[nH]c(-c4n[nH]c5ccc(-c6ccccn6)cc45)cc23)c1 [Compound 28, 3-(4-(3-Fluorophenyl)-1H-pyrrolo[3,2-c]pyridin-2-yl)-5-(pyridin-2-yl)-1H-indazole] | 3090 | 421 | 576 | 1080 |  |  |  | 
c1ccc(-c2ccc3[nH]nc(-c4cc5c(-c6cccs6)nccc5[nH]4)c3c2)nc1 [Compound 364, 5-(Pyridin-2-yl)-3-(4-(thiophen-2-yl)-1H-pyrrolo[3,2-c]pyridin-2-yl)-1H-indazole] | > 10000 | 1770 | 1900 | 2220 | 44 |  |  | 
CN1CCN(c2nccc3[nH]c(-c4n[nH]c5ccc(-c6cncc(NC(=O)C7CCCC7)c6)cc45)cc23)CC1 [Compound 246, N-(5-(3-(4-(4-Methylpiperazin-1-yl)-1H-pyrrolo[3,2-c]pyridin-2-yl)-1H-indazol-5-yl)pyridin-3-yl)cyclopentanecarboxamide] | 9510 | > 10000 | > 10000 | > 10000 |  | 0 | 34.3 | 17.1
CC(C)CC(=O)Nc1cncc(-c2ccc3[nH]nc(-c4cc5c(-c6ccc(F)cc6)nccc5[nH]4)c3c2)c1 [Compound 30, N-(5-(3-(4-(4-Fluorophenyl)-1H-pyrrolo[3,2-c]pyridin-2-yl)-1H-indazol-5-yl)pyridin-3-yl)-3-methylbutanamide] | 1300 | 329 | 439 | 442 |  |  |  | 
CN1CCN(c2nccc3[nH]c(-c4n[nH]c5ccc(-c6ccccn6)cc45)cc23)CC1 [Compound 252, 3-(4-(4-Methylpiperazin-1-yl)-1H-pyrrolo[3,2-c]pyridin-2-yl)-5-(pyridin-2-yl)-1H-indazole] | 2750 | 1460 | 4690 | > 10000 |  |  |  | 18.8
CN(C)CCOc1cncc(-c2ccc3[nH]nc(-c4cc5c(-c6ccc(F)cc6)nccc5[nH]4)c3c2)c1 [Compound 531, 2-((5-(3-(4-(4-fluorophenyl)-1H-pyrrolo[3,2-c]pyridin-2-yl)-1H-indazol-5-yl)pyridin-3-yl)oxy)-N,N-dimethylethan-1-amine] | 7050 | 908 | 1180 | 3380 |  |  |  | 
O=C(Nc1cncc(-c2ccc3[nH]nc(-c4cc5c(-c6cccc(F)c6)nccc5[nH]4)c3c2)c1)C1CCCCC1 [Compound 23, N-(5-(3-(4-(3-Fluorophenyl)-1H-pyrrolo[3,2-c]pyridin-2-yl)-1H-indazol-5-yl)pyridin-3-yl)cyclohexanecarboxamide] | 108 | 1460 | 1140 | 1400 |  |  |  | 
